By MIC is commonly meant the lowest concentration found to suppress growth.

For test [1], the system named is C. parapsilosis. In words: EUCAST and CLSI susceptibility, multicenter. It counts as cell-based, Candida parapsilosis. The conditions noted are these: Lodderomyces parapsilosis, seven laboratories. How it is done:
(§1) Methods: We performed a multicenter study to determine the antifugal susceptibility to AmB from AmBisome (provided by Gilead) using both CLSI and EUCAST protocols. We tested this activity against the most relevant clinical fungal species.Representative isolates from different geographical regions were included in the study. Other antifungals were evaluated (fluconazole, itraconazole, voriconazole, posaconazole, caspofungin, micafungin and anidulafungin).

For test [2], the system named is C. glabrata. In words: EUCAST and CLSI susceptibility, multicenter. In kind it is cell-based, Candida glabrata. The conditions noted are these: Nakaseomyces glabratus, seven laboratories. Here is the method:
as §1

Test [3] relates to C. auris. In words: EUCAST and CLSI susceptibility, multicenter. It counts as cell-based, Candida auris. The conditions noted are these: Candidozyma auris, seven laboratories. How it is done:
as §1

In test [4] the test system is A. niger. In words: EUCAST and CLSI susceptibility, multicenter. In kind it is cell-based. The conditions noted are these: Aspergillus niger. Here is the method: as §1
Test [5] has as its system Aspergillus fumigatus. In words: EUCAST and CLSI susceptibility, multicenter. In kind it is cell-based. Here is the method: as §1
In test [6] the test system is C. tropicalis. In words: EUCAST and CLSI susceptibility, multicenter. It counts as cell-based. The following applies: Candida tropicalis, seven laboratories. How it is done: as §1
The test system of test [7] is other filamentous fungi, including Talaromyces marneffei. The test can be described thus: EUCAST and CLSI susceptibility, multicenter. It counts as cell-based. The conditions noted are these: around, read-out: GM MIC, both methods. Here is the method: as §1
The subject of test [8] is A. flavus. In words: EUCAST and CLSI susceptibility, multicenter. In kind it is cell-based. The following applies: Aspergillus flavus. How it is done:
as §1

For test [9], the system named is Lomentospora prolificans and Cunninghamella bertholletiae. The test can be described thus: EUCAST and CLSI susceptibility, multicenter. It counts as cell-based. Here is the method: as §1
The test system of test [10] is A. nidulans. In words: EUCAST and CLSI susceptibility, multicenter. The following applies: Aspergillus nidulans. In kind it is cell-based. How it is done: as §1
Test [11] has as its system Candida albicans. The test can be described thus: EUCAST and CLSI susceptibility, multicenter. In kind it is cell-based. The conditions noted are these: seven laboratories. Here is the method: as §1
The test system of test [12] is A. terreus. The test can be described thus: EUCAST and CLSI susceptibility, multicenter. It counts as cell-based. The conditions noted are these: Aspergillus terreus. How it is done: as §1
Test [13] has as its system Scedosporium and Lomentospora species. The test can be described thus: Biofilm assay. In kind it is cell-based. How it is done:
(§2) Materials & Methods: Antifungal susceptibility tests and biofilm assay were performed to evaluate the activity of miltefosine against Scedosporium and Lomentospora species. Electron microscopy and fluorescent dyes, such as 2′,7′ –dichlorofluorescein diacetate and JC-1, were used to check the effects on cell integrity, oxidative stress and mitochondrial membrane potential, respectively. Miltefosine effects on fungal membrane were evaluated by fillipin staining, the susceptibility to membrane and cell wall stressors and the analysis of cell membrane permeability. Sinergystic assay was performed to check miltefosine interaction with current antifungal agents used in clinical settings.

Test [14] shares this test system. The test can be described thus: Antifungal susceptibility tests. It counts as cell-based. Here is the method: as §2
The test system of test [15] is Candida isolates from animals. In words: CLSI M44-A2 disk diffusion. In kind it is cell-based, Candida spp. The conditions noted are these: 10 µg discs; all 10 isolates. How it is done:
Methods: Swab samples were plated on Sabouraud dextrose agar (SDA) with the addition of chloramphenicol. M. pachydermatis strains were identified by conventional laboratory methods and their ability to grow on SDA without lipid supplementation. The identification of Candida isolates was based on their phenotypic characterization and molecular methods using the universal ITS-1 and ITS-4 primers for amplification of the internal transcribed spacer 1 (ITS1), ITS2 regions and the 5.8S ribosomal DNA region followed by sequence-based identification. Susceptibility of Candida isolates was determined as described by the CLSI M44-A2 method using MCZ, CTZ and ITZ discs (10 µg, Neo-Sensitabs, Rosco, Denmark). Because the standard procedure for Candida susceptibility testing cannot be applied to M. pachydermatis, recommended modified protocol was used. The results were interpreted according to manufacturer’s guidelines.
On the technique in general: A growth-free zone around the sample is the usual read-out of agar diffusion tests.

In test [16] the test system is C. albicans. In words: Neutrophil control of hyphal growth (swarming). It counts as cell-based, Candida albicans. The conditions noted are these: neutrophils of SOT and SCT recipients, ex vivo. Here is the method: Methods and Materials: Twenty-one SOT, 19 SCT and 23 healthy control patients (HC) were identified and consented at primary care/outpatient transplant clinics. Transplant recipients were enrolled at a time period two to four months post-transplant. Following consent and peripheral blood collection, neutrophils were freshly isolated and co-incubated with C. albicans and the percent remaining live yeast was measured using a viability dye compared to a standard control to determine fungal elimination by neutrophils. Growth inhibition of C. albicans was also quantified by neutrophil swarming to yeast spotted onto glass slides, assessed by live cell imaging with or without G-CSF. Effect of soluble factors on neutrophils function was determined by incubation of healthy neutrophils with SOT and SCT serum and measuring ability to control C. albicans.

Test [17] has as its system invasive fungal diseases (IFDs). The following applies: 41 patients; ref published case reports, PubMed and Embase, 1990–2020; cited from earlier work. From the text: Among the 41 patients with IFDs, were those with invasive candidiasis and invasive mould diseases, including those caused by Aspergillus spp., Mucorales, and Fusarium spp. Sixteen (39%) had baseline neutropenia and 27 (66%) were considered to be refractory to standard therapy prior to GM-CSF administration. Among the 41 patients with IFDs, complete responses were reported in 35 (85%) patients and partial response in 1 patient, with 5 patients having no or unclear response. || Previously published case reports on the use of GM-CSF for adjunctive treatment of IFDs are summarized in Table 2. […]

The test system of test [18] is Candida tropicalis. In words: CLSI M27-A3/M27-S4 MIC and MFC. In kind it is cell-based. How it is done: (§3) Methods & Materials: To evaluate the antifungal effect of each combination of nystatin and morencidine-like peptide, the protocol presented in CLSI M27-A3 and CLSI M27-S4 was used and the minimum inhibitory concentration was determined.
Test [19] concerns Candida glabrata. The test can be described thus: CLSI M27-A3/M27-S4 MIC and MFC. In kind it is cell-based. How it is done: as §3
In test [20] the test system is Candida albicans. In words: CLSI M27-A3/M27-S4 MIC and MFC. It counts as cell-based. How it is done:
as §3

For test [21], the system named is A. fumigatus conidia. The test can be described thus: Conidia killing by epithelial cells with sulfide donor. In kind it is cell-based, Aspergillus fumigatus. The text has this: Materials & Methods: We deleted A. fumigatus genes to identify the enzymes primarily responsible for persulfidation as confirmed by fluorescence proteomic and microscopic analyses. We then used enzymatic assays, killing experiments and murine models to characterize the relevance of persulfidation for A. fumigatus virulence. We performed a genetic association study of the frequencies of a Single Nucleotide Polymorphism (SNP) in the human gene with the probability of suffering Invasive pulmonary aspergillosis (IPA) in hematopoietic stem cell transplant (HSCT) recipients. Next, we investigated the antifungal capacities of host cells using our engineered A549 cell line and alveolar macrophages and neutrophils derived from knock-out mice. Subsequenlty we investigated the interdependency of fungal and human persulfidation levels using Western-blot and fluorescence microscopy. Finally, we performed killing assays in the presence of a sulfide donor to potentiate host persulfidation.

The subject of test [22] is CDR1. In words: Rhodamine 6G (R6G) efflux.
Test [23] concerns Trichophyton rubrum ATCC 28188. The test can be described thus: Checkerboard microtiter method with terbinafine. The following applies: honokiol + terbinafine, additive interactions. In kind it is cell-based. Here is the method: (§4) Materials & Methods: The minimum inhibitory concentration (MIC) of honokiol was assessed by broth microdilution method against standard strains (Trichophyton rubrum ATCC 28188, Trichophyton mentagrophytes ATCC 9533), and clinical isolates (T. rubrum, T. ajelloi, Microsporum canis and M. gypseum). Evaluation of honokiol effect on ergosterol biosynthesis was assessed by high performance liquid chromatography. Checkerboard microtiter method was used to identify synergistic combinations of honokiol with terbinafine against Trichophyton rubrum ATCC 28188. The combinatorial effect was evaluated by calculating the fractional inhibitory concentration index (FICI).

In test [24] the test system is T. rubrum. The test can be described thus: Ergosterol content by HPLC. In kind it is cell-based, Trichophyton rubrum. The conditions noted are these: control 13.56 ± 0.35 mg%. Here is the method:
as §4

Test [25] has as its system dermatophyte standard strains and clinical isolates. In words: Broth microdilution MIC. It counts as cell-based, Trichophyton and Microsporum spp. The conditions noted are these: all tested strains. Here is the method:
as §4
Background: In broth dilution the organism is exposed to a series of concentrations in liquid medium.

Converted amounts (≈) assume the structure as drawn. Where two headings read alike, the source gives them in different places.

With `C[C@@H]1[C@H](O)[C@@H](C)/C=C/C=C/C=C/C=C/C=C/C=C/C=C/[C@H](O[C@@H]2O[C@H](C)[C@@H](O)[C@H](N)[C@@H]2O)C[C@@H]2O[C@](O)(C[C@@H](O)C[C@@H](O)[C@H](O)CC[C@@H](O)C[C@@H](O)CC(=O)O[C@H]1C)C[C@H](O)[C@H]2C(=O)O` [AmB from AmBisome, Amphotericin B], the MIC in [1] (read-out: GM MIC, CLSI) came to 0.38 µg/mL (≈ 0.411 µM); in test [1] (read-out: GM MIC, EUCAST), 0.36 µg/mL (≈ 0.39 µM); in test [2] (read-out: GM MIC, CLSI), 0.33 µg/mL (≈ 0.357 µM); in test [2] (read-out: GM MIC, EUCAST) it was 0.34 µg/mL (≈ 0.368 µM); in [3] (read-out: GM MIC, CLSI), 0.31 µg/mL (≈ 0.335 µM); in test [3] (read-out: GM MIC, EUCAST), 0.46 µg/mL (≈ 0.498 µM). Further, the MIC turned out to be 0.36 µg/mL (≈ 0.39 µM) in test [4] (read-out: GM MIC, CLSI); 0.22 µg/mL (≈ 0.238 µM) in test [4] (read-out: GM MIC, EUCAST); 0.64 µg/mL (≈ 0.693 µM) in test [5] (read-out: GM MIC, CLSI); 0.65 µg/mL (≈ 0.703 µM) in test [5] (read-out: GM MIC, EUCAST); 0.31 µg/mL (≈ 0.335 µM) in test [6] (read-out: GM MIC, CLSI); 0.36 µg/mL (≈ 0.39 µM) in test [6] (read-out: GM MIC, EUCAST). Further, the MIC is 0.2 to 0.5 µg/mL (≈ 0.216 to 0.541 µM) in test [7]; 1.1 µg/mL (≈ 1.19 µM) in [8] (read-out: GM MIC, CLSI); 1.7 µg/mL (≈ 1.84 µM) in [8] (read-out: GM MIC, EUCAST); 0.9 µg/mL (≈ 0.974 µM) in test [10] (read-out: GM MIC, CLSI); 1.7 µg/mL (≈ 1.84 µM) in test [10] (read-out: GM MIC, EUCAST); 0.21 µg/mL (≈ 0.227 µM) in test [11] (read-out: GM MIC, CLSI). Further, the MIC in test [11] (read-out: GM MIC, EUCAST) is 0.23 µg/mL (≈ 0.249 µM); in test [12] (read-out: GM MIC, CLSI), 1.4 µg/mL (≈ 1.52 µM); in test [12] (read-out: GM MIC, EUCAST), 2 µg/mL (≈ 2.16 µM). The “activity, in words” value in test [9] is listed as “lowest activity”.

`CCCCCCCCCCCCCCCCOP(=O)([O-])OCC[N+](C)(C)C` [Miltefosine, miltefosine]: the biofilm formation result in [13] is recorded as “reduced biofilm formation”. Moreover, in test [14], the inhibitory concentration was in the range of 2 to 4 µg/mL.

For `Clc1ccccc1C(c1ccccc1)(c1ccccc1)n1ccnc1` [CTZ, clotrimazole], the susceptibility category entry in [15] is reported as “susceptible”.

Consider “Granulocyte-macrophage colony stimulating factor [GM-CSF]”, for which the “neutrophil ability to control hyphal growth” value in test [16] is recorded as “partially restored”. For the same molecule, the “complete responses, n (%)” value in test [17] is recorded as 35 (85%).

For the molecule `C[C@@H]1[C@H](O)[C@@H](C)/C=C/C=C/CC/C=C/C=C/C=C/C=C/C(O[C@H]2O[C@H](C)[C@@H](O)[C@H](N)[C@@H]2O)CC2O[C@](O)(CC(O)C(O)CCC(O)CC(O)CC(O)CC(=O)O[C@H]1C)CC(O)C2C(=O)O` (some centres unmarked) [nystatin], the “MIC (maximum inhibitory effect)” value is listed as 0.625 µg/mL in test [18], 1.25 µg/mL in test [19] and 1.25 µg/mL in [20].

For `C1COCCN1.COc1ccc(P(=S)(S)N2CCOCC2)cc1` (centres unmarked) [GY4137], in test [21], the “conidia killing capacity of epithelial cells” value is “enhanced”.

As for Milbemycin oxim A3, the R6G efflux phenotype entry in test [22] is reported as “mimicked efflux phenotypes of cdr1∆ mutants”.

`C=CCc1ccc(O)c(-c2ccc(O)c(CC=C)c2)c1` [honokiol, Honokiol]: the FICI in test [23] is on record as 0.53–0.75. In test [24], the ergosterol content is recorded as 9.52 ± 0.43 mg%. For the same molecule, in [25], the MIC is 8 to 16 µg/mL.

Source of the values: publication PMC8624133, “10th Trends in Medical Mycology Held on 8 to 11 October 2021, Aberdeen, Scotland, Organized by the European Confederation of Medical Mycology (ECMM)” (Journal of Fungi, 2021).
